As usually defined, the IC50 is the midpoint of a concentration-inhibition curve. By Km is commonly meant the concentration of substrate that gives half-maximal velocity. The term stoichiometry N denotes a count of units in the complex or per binding partner.

These results are taken from article PMC6908673, “Tuning the in vitro sensing and signaling properties of cyanobacterial PII protein by mutation of key residues” (Scientific Reports, 2019).

One data set has as its target T1, PII-PipX complex (Synechococcus elongatus, UniProt P0A3F4).
T1 construct: gene glnB; Strep-tagged PII trimer pre-incubated with His6-tagged PipX; three PipX per PII trimer; both from E. coli
Description: indirect SPR, His6-PipX on Ni-NTA chip. Type of data set: binding. The settings on record: 10 mM Hepes pH 7.5, 150 mM NaCl, 1 mM MgCl2, 25 °C.

The target in another data set is T2, SeNAGK + SePII (Synechococcus elongatus, UniProt Q6V1L5).
T2 construct: gene argB; His6-tagged SeNAGK hexamer mixed with Strep-tagged SePII; two PII trimers sandwich one NAGK hexamer (WT); both from E. coli; with Nitrogen regulatory protein P-II
T2 sequence (P0A3F4 whole entry partner, one chain of several): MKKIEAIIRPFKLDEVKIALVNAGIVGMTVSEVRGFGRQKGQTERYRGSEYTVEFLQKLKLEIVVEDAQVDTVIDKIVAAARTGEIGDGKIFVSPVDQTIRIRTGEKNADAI
Description: coupled NAGK assay (pyruvate kinase/lactate dehydrogenase, NADH oxidation). Type of data set: biochemical. The settings on record: 25 µM arginine; 2-OG acts on PII site.

Another data set addresses T3, SeNAGK (Synechococcus elongatus, UniProt Q6V1L5).
T3 construct: gene argB; His6-tagged, E. coli BL21(DE3), His-Trap; hexamer, about 194 kDa
T3 sequence (Q6V1L5 1-301): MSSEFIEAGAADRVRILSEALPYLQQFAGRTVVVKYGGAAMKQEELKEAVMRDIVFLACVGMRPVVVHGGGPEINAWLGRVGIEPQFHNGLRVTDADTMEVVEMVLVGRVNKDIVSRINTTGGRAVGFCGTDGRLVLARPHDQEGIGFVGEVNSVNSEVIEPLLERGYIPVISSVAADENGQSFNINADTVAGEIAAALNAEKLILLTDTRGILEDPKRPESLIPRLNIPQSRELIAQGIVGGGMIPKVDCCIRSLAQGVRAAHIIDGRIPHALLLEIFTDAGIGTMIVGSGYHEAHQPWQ
The description is as above. The format is biochemical. An excerpt:
coupled NAGK assay (pyruvate kinase/lactate dehydrogenase, NADH oxidation) on SeNAGK | Arginine feedback inhibition of non-complexed SeNAGK occurred with a half maximal inhibitory concentration (IC50) of […]

Substrate in data set [1]: CC(=O)N[C@@H](CCC(=O)O)C(=O)O
The description is as above. The format is biochemical, Synechococcus elongatus. The settings on record: without PII; without arginine. An excerpt:
coupled NAGK assay (pyruvate kinase/lactate dehydrogenase, NADH oxidation) on SeNAGK

Data set [2] concerns the molecule itself. Description: SEC-MALS; PII mixed with NAGK (molar ratio 3:1 PII trimers to NAGK hexamers) 10 min at room temperature; Superose 6 Increase 10/300 GL; 100 mM Tris-HCl pH 7.8, 300 mM NaCl, 2 mM MgCl2, 2% glycerol; eluted fractions checked by SDS-PAGE. In general terms: Size exclusion chromatography separates by hydrodynamic size, large species first.
Substrate in data set [3]: CC(=O)N[C@@H](CCC(=O)O)C(=O)O
Description: coupled NAGK assay (pyruvate kinase/lactate dehydrogenase, NADH oxidation). The format is biochemical, Synechococcus elongatus. Conditions: with SePII (WT); without arginine. An excerpt:
coupled NAGK assay (pyruvate kinase/lactate dehydrogenase, NADH oxidation) on SeNAGK + SePII

T1 sequence (P0A3F4 whole entry): as the sequence (P0A3F4 whole entry partner, one chain of several) above
T1 sequence (Q7X386 1-89 partner): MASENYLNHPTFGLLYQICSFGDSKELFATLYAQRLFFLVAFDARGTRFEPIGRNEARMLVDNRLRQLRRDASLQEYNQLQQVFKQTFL

Consider `Nc1ncnc2c1ncn2[C@@H]1O[C@H](COP(=O)(O)OP(=O)(O)O)[C@@H](O)[C@H]1O` [ADP], for which the “indirect SPR, His6-PipX on Ni-NTA chip” value on PII-PipX complex (1 mM ADP) was “strong positive effect of ADP on the interaction of PII (WT) with PipX”.
With `O=C(O)CCC(=O)C(=O)O` [2-OG], the “coupled NAGK assay (pyruvate kinase/lactate dehydrogenase, NADH oxidation)” value on SeNAGK + SePII was “complex of SeNAGK-SePII (WT) showed the typical inhibitory effect upon 2-OG addition”. Also, at PII-PipX complex (1 mM 2-OG with 1 mM ATP), the “indirect SPR, His6-PipX on Ni-NTA chip” value is 2-OG in presence of ATP impaired PipX-PII (WT) complex formation.
In the case of `N=C(N)NCCC[C@H](N)C(=O)O` [arginine], the IC50 at SeNAGK amounted to 11 µM.

B1: SeNAGK (Synechococcus elongatus PCC 7942 = FACHB-805) (protein)
chain: T3 sequence (Q6V1L5 1-301)
notes: His6-tagged, E. coli BL21(DE3), His-Trap; hexamer, about 194 kDa
On to B1, for which the Km in data set [1] was 5.1 ± 0.9 mM.

B2: SeNAGK, N-acetyl-L-glutamate kinase from S. elongatus PCC7942, His6-tagged (enzyme)
chain: T3 sequence (Q6V1L5 1-301)
notes: N-acetyl-L-glutamate kinase (NAGK) of Synechococcus elongatus PCC 7942; hexamer; also called His6-NAGK
Consider B2, for which, in data set [2], the “stoichiometry N” value was determined as 6.

B3: SeNAGK + SePII (Synechococcus elongatus PCC 7942 = FACHB-805) (protein)
chain: T3 sequence (Q6V1L5 1-301)
notes: His6-tagged SeNAGK hexamer mixed with Strep-tagged SePII; two PII trimers sandwich one NAGK hexamer (WT); both from E. coli; with Nitrogen regulatory protein P-II
Regarding B3, the Km in data set [3] turned out to be 2.9 ± 0.6 mM.
